Patent US12122789B2, “Forms of pyrido[1,2-a]pyrimidin-4-one derivatives, its formulation and its process of making” (Hoffmann-La Roche Inc., priority 2018, dated 2024)

Tests used:
[1] = relative thermodynamic stability of crystal forms (equilibration of suspensions); format: physicochemical; details: for thermodynamic stability of the polymorph: in particular between 5° C. to 65° C.
Excerpt: Alternatively, Form A can be obtained upon equilibration of solid 7-(4,7-diazaspiro[2.5]octan-7-yl)-2-(2,8-dimethylimidazo[1,2-b]pyridazin-6-yl)pyrido[1,2-a]pyrimidin-4-one suspended in organic solvents or a mixture thereof for prolonged time. In particular 7-(4,7-diazaspiro[2.5]octan-7-yl)-2-(2,8-dimethylimidazo[1,2-b]pyridazin-6-yl)pyrido[1,2-a]pyrimidin-4-one can be suspended in ethanol, methyl ethyl ketone, ethyl acetate, or dioxane at ambient temperature or at elevated temperature (e.g. 22 to 65° C.) for 2-3 weeks affording 7-(4,7-diazaspiro[2.5]octan-7-yl)-2-(2,8-dimethylimidazo[1,2-b]pyridazin-6-yl)pyrido[1,2-a]pyrimidin-4-one as Form A.
Form D can be obtained by equilibration of solid 7-(4,7-diazaspiro[2.5]octan-7-yl)-2-(2,8-dimethylimidazo[1,2-b]pyridazin-6-yl)pyrido[1,2-a]pyrimidin-4-one suspended in water or water containing organic solvents for prolonged time. 7-(4,7-diazaspiro[2.5]octan-7-yl)-2-(2,8-dimethylimidazo[1,2-b]pyridazin-6-yl)pyrido[1,2-a]pyrimidin-4-one can be suspended in water or mixtures of organic solvent and water, in particular in ethanol/water mixtures. In particular, the mixture can be left in equilibration for 2-3 weeks in water or in ethanol/water 20/80 v/v at 65° C. to afford 7-(4,7-diazaspiro[2.5]octan-7-yl)-2-(2,8-dimethylimidazo[1,2-b]pyridazin-6-yl)pyrido[1,2-a]pyrimidin-4-one as Form D. In particular, the mixture can be left in equilibration for 2-3 weeks in water or in ethanol/water 20/80 v/v to 50/50 v/v to 80/20 v/v at approx. 22° C. to afford 7-(4,7-diazaspiro[2.5]octan-7-yl)-2-(2,8-dimethylimidazo[1,2-b]pyridazin-6-yl)pyrido[1,2-a]pyrimidin-4-one as Form D.

[2] = chemical stability of the solid form; format: physicochemical; details: compared to Form D
[3] = hygroscopicity (water uptake according to European Pharmacopoeia); format: physicochemical
[4] = tested on: exon 7 of SMN1 and/or SMN2; assay: inclusion of exon 7 into mRNA transcribed from the SMN1 and/or SMN2 gene; details: increasing expression of SMN protein in a human subject

## Cc1cn2nc(-c3cc(=O)n4cc(N5CCNC6(CC6)C5)ccc4n3)cc(C)c2n1 [Form D, 7-(4,7-diazaspiro[2.5]octan-7-yl)-2-(2,8-dimethylimidazo[1,2-b]pyridazin-6-yl)pyrido[1,2-a]pyrimidin-4-one]
[1]; with sufficiently high water activity
  stability of the hydrated form: stable hydrated form

## Cc1cn2nc(-c3cc(=O)n4cc(N5CCNC6(CC6)C5)ccc4n3)cc(C)c2n1 [Form A, 7-(4,7-diazaspiro[2.5]octan-7-yl)-2-(2,8-dimethylimidazo[1,2-b]pyridazin-6-yl)pyrido[1,2-a]pyrimidin-4-one]
[1]
  thermodynamic stability of the polymorph: thermodynamic stable polymorph
[2]
  chemical stability: improved chemical stability
[3]
  hygroscopicity: non-hygroscopic to slightly hygroscopic
  water uptake: < 2%

## Cc1cn2nc(-c3cc(=O)n4cc(N5CCNC6(CC6)C5)ccc4n3)cc(C)c2n1 [compound of formula (I), 7-(4,7-diazaspiro[2.5]octan-7-yl)-2-(2,8-dimethylimidazo[1,2-b]pyridazin-6-yl)pyrido[1,2-a]pyrimidin-4-one]
[4]
  inclusion of exon 7 of SMN1 and/or SMN2 into mRNA: enhance inclusion of exon 7

## Cc1cn2nc(-c3cc(=O)n4cc(N5CCNC6(CC6)C5)ccc4n3)cc(C)c2n1 [Form G, 7-(4,7-diazaspiro[2.5]octan-7-yl)-2-(2,8-dimethylimidazo[1,2-b]pyridazin-6-yl)pyrido[1,2-a]pyrimidin-4-one]
[1]
  thermodynamic stability of the polymorph: metastable polymorph

## Cc1cn2nc(-c3cc(=O)n4cc(N5CCNC6(CC6)C5)ccc4n3)cc(C)c2n1 [Form B, 7-(4,7-diazaspiro[2.5]octan-7-yl)-2-(2,8-dimethylimidazo[1,2-b]pyridazin-6-yl)pyrido[1,2-a]pyrimidin-4-one]
[1]
  thermodynamic stability of the polymorph: metastable polymorph
